In ChEMBL document CHEMBL5465560, “Selectivity Literature for EUbOPEN Chemogenomic Library” (2024):
One block for each molecule: values may come before it.

How the values were obtained:
[1] = system: Tyrosine-protein kinase ABL1 (Homo sapiens), P00519 [H396P]; conditions: at 10 µM
[2] = biological target: T1, Phosphatidylinositol 5-phosphate 4-kinase type-2 beta (Homo sapiens) (UniProt P78356); assay: Selectivity interaction (KinomeScan (DiscoverX)) EUB0001049a PIP4K2B; conditions: at 1 µM
T1 sequence (whole entry): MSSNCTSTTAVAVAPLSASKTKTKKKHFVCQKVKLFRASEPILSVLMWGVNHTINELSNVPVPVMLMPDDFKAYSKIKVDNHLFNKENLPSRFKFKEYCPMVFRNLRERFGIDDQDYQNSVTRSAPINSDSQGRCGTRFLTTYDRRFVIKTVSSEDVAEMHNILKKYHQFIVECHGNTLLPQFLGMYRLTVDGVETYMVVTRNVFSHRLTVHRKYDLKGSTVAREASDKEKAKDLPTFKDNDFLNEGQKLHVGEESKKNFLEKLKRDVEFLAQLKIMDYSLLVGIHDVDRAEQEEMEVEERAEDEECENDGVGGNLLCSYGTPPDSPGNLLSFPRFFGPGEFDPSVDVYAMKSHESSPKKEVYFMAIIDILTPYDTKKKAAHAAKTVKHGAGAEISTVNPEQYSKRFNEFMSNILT

[3] = biological target: Cyclin-dependent kinase 5 (Homo sapiens, UniProt Q00535); assay: Selectivity interaction (ActivX KiNativ screen (kinase selectivity in THP-1 cell lysates)) EUB0000639a CDK5; assay type: subcellular; conditions: lysate, at 0.2 µM
Sequence of Cyclin-dependent kinase 5 (Q00535 whole entry, looked up): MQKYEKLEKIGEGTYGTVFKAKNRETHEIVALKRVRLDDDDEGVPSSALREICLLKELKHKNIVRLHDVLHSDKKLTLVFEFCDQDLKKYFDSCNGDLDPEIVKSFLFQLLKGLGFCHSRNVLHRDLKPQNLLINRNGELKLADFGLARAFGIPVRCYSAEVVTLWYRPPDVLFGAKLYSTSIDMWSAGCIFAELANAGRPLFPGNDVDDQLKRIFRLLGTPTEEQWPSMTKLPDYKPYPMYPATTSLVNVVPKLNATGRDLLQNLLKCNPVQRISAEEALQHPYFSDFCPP

[4] = biological target: Mitogen-activated protein kinase 14 (Homo sapiens, UniProt Q16539); assay: Selectivity interaction (Enzymatic assay) EUB0001199aCl MAPK14
Sequence of Mitogen-activated protein kinase 14 (Q16539 whole entry): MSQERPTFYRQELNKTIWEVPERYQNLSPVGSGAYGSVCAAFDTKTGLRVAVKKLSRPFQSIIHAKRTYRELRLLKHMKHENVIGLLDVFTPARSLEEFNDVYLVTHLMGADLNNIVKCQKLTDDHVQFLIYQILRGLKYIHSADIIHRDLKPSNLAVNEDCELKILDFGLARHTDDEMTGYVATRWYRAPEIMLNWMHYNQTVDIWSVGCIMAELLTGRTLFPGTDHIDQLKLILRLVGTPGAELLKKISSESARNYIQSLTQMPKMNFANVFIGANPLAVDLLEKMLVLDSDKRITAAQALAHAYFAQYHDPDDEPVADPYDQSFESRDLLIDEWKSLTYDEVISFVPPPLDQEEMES

[5] = biological target: T2, Myosin light chain kinase family member 4 (Homo sapiens) (UniProt Q86YV6); assay: Selectivity interaction (LanthaScreen Eu Kinase Binding Assay) EUB0001632a MYLK4; conditions: at 10 µM
T2 sequence (whole entry): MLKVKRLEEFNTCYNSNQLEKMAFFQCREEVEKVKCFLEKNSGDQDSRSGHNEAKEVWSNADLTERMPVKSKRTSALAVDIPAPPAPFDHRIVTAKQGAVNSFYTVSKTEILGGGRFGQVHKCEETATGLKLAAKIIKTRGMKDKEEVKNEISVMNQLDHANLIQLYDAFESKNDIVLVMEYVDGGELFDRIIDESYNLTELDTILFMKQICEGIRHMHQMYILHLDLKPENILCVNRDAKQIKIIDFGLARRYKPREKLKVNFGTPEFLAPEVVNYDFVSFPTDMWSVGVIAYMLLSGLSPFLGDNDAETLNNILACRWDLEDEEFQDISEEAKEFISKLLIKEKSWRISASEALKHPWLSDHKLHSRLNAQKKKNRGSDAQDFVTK

[6] = biological target: cAMP-dependent protein kinase catalytic subunit beta (Homo sapiens) (UniProt P22694); conditions: at 10 µM
[7] = system: Tyrosine-protein kinase ABL1 (Homo sapiens), P00519 [F317I]; assay: Selectivity interaction (KinomeScan (DiscoverX)) EUB0000229b ABL1; conditions: at 1 µM
[8] = biological target: Tyrosine-protein kinase Lck (Homo sapiens, UniProt P06239); assay: Selectivity interaction (KinomeScan (DiscoverX)) EUB0000092b LCK; conditions: at 10 µM
Sequence of Tyrosine-protein kinase Lck (P06239 2-509 limits assumed): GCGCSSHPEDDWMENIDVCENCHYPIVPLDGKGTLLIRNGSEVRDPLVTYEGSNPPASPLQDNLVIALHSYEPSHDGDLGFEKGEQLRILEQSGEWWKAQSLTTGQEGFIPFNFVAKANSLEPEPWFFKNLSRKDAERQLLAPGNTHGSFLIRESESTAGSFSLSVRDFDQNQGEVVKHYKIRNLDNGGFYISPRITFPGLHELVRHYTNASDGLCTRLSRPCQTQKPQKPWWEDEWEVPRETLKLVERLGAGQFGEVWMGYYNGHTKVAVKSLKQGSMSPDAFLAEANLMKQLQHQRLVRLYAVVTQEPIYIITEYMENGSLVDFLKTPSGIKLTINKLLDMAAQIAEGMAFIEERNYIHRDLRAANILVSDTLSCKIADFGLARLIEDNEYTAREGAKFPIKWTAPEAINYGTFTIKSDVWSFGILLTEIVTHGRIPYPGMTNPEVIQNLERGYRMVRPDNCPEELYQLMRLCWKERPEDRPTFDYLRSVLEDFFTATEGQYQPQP

[9] = biological target: T3, Peripheral plasma membrane protein CASK (Homo sapiens) (UniProt O14936); assay: Selectivity interaction (KinomeScan (DiscoverX)) EUB0000618a CASK; conditions: at 10 µM
T3 sequence (whole entry): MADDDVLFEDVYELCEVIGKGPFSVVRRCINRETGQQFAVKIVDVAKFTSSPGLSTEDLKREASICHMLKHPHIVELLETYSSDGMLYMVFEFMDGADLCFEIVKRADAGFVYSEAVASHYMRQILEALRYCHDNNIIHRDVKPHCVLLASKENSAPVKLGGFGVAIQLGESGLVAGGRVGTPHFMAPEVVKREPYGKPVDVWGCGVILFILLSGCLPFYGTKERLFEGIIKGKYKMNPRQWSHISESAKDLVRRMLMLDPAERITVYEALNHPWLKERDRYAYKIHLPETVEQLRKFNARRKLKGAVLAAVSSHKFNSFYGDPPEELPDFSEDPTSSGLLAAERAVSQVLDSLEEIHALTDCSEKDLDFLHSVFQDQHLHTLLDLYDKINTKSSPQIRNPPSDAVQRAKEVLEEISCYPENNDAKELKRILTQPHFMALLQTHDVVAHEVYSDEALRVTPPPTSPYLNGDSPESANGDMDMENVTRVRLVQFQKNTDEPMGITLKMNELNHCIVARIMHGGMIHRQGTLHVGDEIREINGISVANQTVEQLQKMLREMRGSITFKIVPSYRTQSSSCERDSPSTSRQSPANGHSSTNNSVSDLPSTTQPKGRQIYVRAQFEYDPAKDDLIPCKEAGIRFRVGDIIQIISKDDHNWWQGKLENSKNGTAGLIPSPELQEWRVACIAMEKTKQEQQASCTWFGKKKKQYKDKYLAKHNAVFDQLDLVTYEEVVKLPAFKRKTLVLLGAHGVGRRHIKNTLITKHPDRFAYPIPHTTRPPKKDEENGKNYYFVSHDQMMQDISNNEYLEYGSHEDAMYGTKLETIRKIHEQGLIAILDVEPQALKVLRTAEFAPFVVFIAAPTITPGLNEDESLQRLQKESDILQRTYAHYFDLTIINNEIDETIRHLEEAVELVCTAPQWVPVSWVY

[10] = biological target: Citron Rho-interacting kinase (Homo sapiens) (UniProt O14578); assay: Selectivity interaction (KinomeScan (DiscoverX)) EUB0000607a CIT; conditions: at 10 µM
Sequence of Citron Rho-interacting kinase (Homo sapiens) (O14578 whole entry): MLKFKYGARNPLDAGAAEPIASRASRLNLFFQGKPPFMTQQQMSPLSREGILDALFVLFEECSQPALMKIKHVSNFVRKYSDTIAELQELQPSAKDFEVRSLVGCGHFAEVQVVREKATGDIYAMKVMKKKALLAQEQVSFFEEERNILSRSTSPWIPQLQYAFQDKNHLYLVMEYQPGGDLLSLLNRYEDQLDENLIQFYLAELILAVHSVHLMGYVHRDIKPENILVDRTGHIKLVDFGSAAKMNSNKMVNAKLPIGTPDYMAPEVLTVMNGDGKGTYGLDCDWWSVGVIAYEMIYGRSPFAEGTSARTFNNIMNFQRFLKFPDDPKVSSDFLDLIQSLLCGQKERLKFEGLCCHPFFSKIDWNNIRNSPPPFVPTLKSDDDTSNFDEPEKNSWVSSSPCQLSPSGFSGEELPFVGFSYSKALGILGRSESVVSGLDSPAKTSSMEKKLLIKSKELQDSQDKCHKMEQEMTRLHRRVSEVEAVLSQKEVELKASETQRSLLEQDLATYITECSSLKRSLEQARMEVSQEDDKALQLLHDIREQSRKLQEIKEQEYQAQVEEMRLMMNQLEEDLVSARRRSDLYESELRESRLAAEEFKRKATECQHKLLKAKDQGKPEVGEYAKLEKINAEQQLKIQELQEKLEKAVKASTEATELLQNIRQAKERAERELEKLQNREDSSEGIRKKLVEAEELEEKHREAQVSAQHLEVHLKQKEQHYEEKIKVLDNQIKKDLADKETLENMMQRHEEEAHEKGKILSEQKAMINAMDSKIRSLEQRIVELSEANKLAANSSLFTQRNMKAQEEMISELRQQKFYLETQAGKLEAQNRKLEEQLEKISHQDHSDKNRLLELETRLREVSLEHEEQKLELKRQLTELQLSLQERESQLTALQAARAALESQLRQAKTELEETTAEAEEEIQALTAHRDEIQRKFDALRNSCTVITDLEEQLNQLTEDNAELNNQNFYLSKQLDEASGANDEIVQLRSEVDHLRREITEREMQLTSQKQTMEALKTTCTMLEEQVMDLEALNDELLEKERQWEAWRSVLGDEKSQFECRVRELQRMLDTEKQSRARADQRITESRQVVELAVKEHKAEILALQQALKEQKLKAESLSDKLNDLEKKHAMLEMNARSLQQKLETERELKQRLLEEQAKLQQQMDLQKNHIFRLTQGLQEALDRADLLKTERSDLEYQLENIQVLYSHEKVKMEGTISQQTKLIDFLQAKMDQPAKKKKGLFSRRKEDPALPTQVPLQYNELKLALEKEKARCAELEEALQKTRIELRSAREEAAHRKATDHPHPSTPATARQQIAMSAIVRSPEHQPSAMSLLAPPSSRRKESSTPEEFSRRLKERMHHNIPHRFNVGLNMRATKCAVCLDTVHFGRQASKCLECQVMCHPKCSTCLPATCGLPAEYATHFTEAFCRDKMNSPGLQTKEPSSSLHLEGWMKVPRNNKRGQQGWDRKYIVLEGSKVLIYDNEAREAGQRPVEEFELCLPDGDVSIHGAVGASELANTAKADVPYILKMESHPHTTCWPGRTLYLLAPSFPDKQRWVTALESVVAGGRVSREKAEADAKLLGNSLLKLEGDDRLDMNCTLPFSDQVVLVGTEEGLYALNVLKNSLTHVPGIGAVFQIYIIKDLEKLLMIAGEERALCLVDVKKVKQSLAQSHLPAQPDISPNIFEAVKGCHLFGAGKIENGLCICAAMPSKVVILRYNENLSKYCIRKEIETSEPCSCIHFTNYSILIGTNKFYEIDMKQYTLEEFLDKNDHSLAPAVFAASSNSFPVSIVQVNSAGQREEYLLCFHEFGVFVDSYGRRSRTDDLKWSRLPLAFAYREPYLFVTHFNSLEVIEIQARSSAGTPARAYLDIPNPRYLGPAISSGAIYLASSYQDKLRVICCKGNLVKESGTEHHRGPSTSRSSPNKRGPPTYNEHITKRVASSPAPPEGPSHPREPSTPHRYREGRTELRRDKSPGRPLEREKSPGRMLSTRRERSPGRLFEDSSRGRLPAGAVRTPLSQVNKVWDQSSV

[11] = biological target: Serine/threonine-protein kinase 10 (Homo sapiens) (UniProt O94804); assay: Selectivity interaction (Kinase panel (KiNativ target engagement assay in Jurkat cells)) EUB0001635a STK10; assay type: cell-based; conditions: Selectivity number of off-targets 0.0, Selectivity number of targets 233.0, Source Knowledge https://www.sciencedirect.com/science/article/pii/S2451945619300674?via%3Dihub, at 1 µM
Sequence of Serine/threonine-protein kinase 10 (Homo sapiens) (O94804 whole entry, looked up): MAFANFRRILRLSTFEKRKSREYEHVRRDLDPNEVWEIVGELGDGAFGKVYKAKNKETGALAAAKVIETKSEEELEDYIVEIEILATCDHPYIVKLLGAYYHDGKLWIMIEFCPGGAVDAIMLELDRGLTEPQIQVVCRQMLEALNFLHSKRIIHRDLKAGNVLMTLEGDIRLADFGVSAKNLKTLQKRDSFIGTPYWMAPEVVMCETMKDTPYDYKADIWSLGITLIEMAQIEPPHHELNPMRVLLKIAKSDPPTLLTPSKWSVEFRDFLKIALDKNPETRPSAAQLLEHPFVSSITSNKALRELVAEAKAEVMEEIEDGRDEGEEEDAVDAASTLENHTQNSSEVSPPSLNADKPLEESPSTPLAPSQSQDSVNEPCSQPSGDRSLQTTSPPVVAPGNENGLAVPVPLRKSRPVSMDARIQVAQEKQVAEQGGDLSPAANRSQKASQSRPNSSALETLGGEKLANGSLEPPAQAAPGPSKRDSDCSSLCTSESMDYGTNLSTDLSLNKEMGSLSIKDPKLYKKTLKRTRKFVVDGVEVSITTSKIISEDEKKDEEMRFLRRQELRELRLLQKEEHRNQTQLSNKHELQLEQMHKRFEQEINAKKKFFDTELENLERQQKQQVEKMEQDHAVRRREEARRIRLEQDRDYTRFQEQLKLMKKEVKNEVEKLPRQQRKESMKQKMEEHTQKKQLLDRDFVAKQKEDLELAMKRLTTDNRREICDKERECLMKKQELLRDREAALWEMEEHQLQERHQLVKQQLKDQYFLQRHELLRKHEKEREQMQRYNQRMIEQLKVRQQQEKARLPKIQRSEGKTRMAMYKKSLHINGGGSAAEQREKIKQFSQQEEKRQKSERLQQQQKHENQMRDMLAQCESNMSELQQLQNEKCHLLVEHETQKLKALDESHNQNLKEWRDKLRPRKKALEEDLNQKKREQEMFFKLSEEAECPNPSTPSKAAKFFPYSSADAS

SMILES: Cc1cc([C@@H](C)Nc2ccccc2C(=O)O)c2nc(N3CCOCC3)cc(=O)n2c1 [AZD-6482]
% of control [1]: 61%

SMILES: COc1cc(Nc2nc(C)cc(-c3cnn4nc(OC)ccc34)n2)cc(C(F)(F)F)c1
% of control [2]: 96%

% of inhibition [3]: -6.8%
SMILES: CC[C@@H]1[C@H](F)C(=O)N[C@@H]1COc1nccc2cc(C(N)=O)c(OC)cc12 [ZIMLOVISERTIB]

IC50 [4]: 861 nM
SMILES: CN1Cc2nccc(-c3cn(C)nc3-c3ccc(F)cc3)c2C1=O

% of inhibition [5]: -25.4%
SMILES: Cn1cc(-n2cnc3c(NCc4nc5cc(Cl)c(Cl)cc5[nH]4)nc(N4CCOCC4)nc32)cn1

% of control [6]: 100%
SMILES: CCN(CC)CCCCNc1ncc2cc(-c3cc(OC)cc(OC)c3)c(NC(=O)NC(C)(C)C)nc2n1

SMILES: COc1cc(N(C)c2ccnc3ccc(C(F)(F)F)cc23)cc(OC)c1OC
% binding [7]: 96%

SMILES: CCC(=O)N1CCN(c2ccc(-n3c(=O)ccc4cnc5ccc(-c6cnc7ccccc7c6)cc5c43)cc2C(F)(F)F)CC1
% of control [8]: 77%

SMILES: O[C@H]1CC[C@H](Nc2ncc3nc(Nc4c(F)cc(F)cc4F)n([C@H]4CCOC4)c3n2)CC1
% of control [9]: 95%

SMILES: CNC(=O)Nc1ccc(-c2nc(N3CC4CCC(C3)O4)c3cnn(C4CCC5(CC4)OCCO5)c3n2)cc1
% of control [10]: 100%

SMILES: C=CC(=O)Nc1ccc(C(=O)Nc2[nH]nc3c2CN(C(=O)N[C@H](CN(C)C)c2ccccc2)C3(C)C)cc1
% of engagement [11]: -2.2%
